# Patent publication US20190313679A1, “SUGAR-DIPEPTIDE CONJUGATES AS FLAVOR MOLECULES” (NESTEC S.A., priority 2016, published 2019)
# Residues, ends and D or L forms follow the SMILES beside them.
# Key:
# Assay type in all cases: in vivo
# [1] = Sensory evaluation of the compounds in water; conditions: 2 g/L in water, 12 panelists
# Procedure: The compounds glutamyl-threonine and 1-deoxy-D-fructosyl-N-glutamyl-threonine were each dissolved and diluted in water in a final concentration of 2 g/L. The solutions were then evaluated by 12 panelists, which were previously screened and selected for their sensory abilities.
# [2] = Comparison between soup bases containing the sugar conjugate and the mixture of glucose and glutamyl-threonine; conditions: soup base with 2 g/L (4.57 mmol/L) versus reference soup with same molar glucose and glutamyl-threonine, 6 panelists
# Procedure: A first soup was prepared by adding 2 g/L (4.57 mmol/L) 1-deoxy-D-fructosyl-N-glutamyl-threonine in the soup base described above under Example 4. A second soup was prepared by adding the corresponding same molar concentrations of glucose and glutamyl-threonine to the same soup base. The resulting soups were then evaluated by 6 panelists following the same procedure than described above under Example 4.
# [3] = Seasoning compositions: tomato soups with added compound; conditions: tomato soup, 0.5 g/L or 2.5 g/L, versus reference soups without the compounds
# Procedure: Tomato soups can be prepared by dissolving 6 g tomato base powder as can be obtained in the commerce in 500 mL hot water. 1-deoxy-D-fructosyl-N-glutamyl-threonine or alternatively 1-deoxy-D-fructosyl-N-glutamyl-serine can be added at a concentration of 0.5 g/L or 2.5 g/L to the soups in order to improve their taste and flavor profile. […] For example, a similar tomato soup can now be prepared which has the same saltiness as the reference tomato soup but comprising less sodium chloride.
# [4] = Sensory evaluation of the compounds in a chicken soup base; conditions: chicken soup with 2 g/L versus reference samples, 12 panelists
# Procedure: Chicken soups were prepared by dissolving 6 g chicken base powder (detailed recipe shown in Table 1) and 1 g monosodium glutamate in 500 mL hot water. 1-Deoxy-D-fructosyl-N-glutamyl-threonine was then added separately at 2 g/L final concentrations.
# The sensory evaluation was carried out by 12 panelists, previously screened for their sensory abilities. The panelists assessed a maximum of 6 samples per session. They had Vittel water and crackers as mouth cleansers. In all the cases, the panelists were instructed to evaluate the samples for the following attributes: overall flavor persistency, umami, meaty, grilled/popcorn-like, bread-like, boiled chicken, sweet, bitter, and salty. The samples were coded with random 3-digit numbers according to a balanced presentation design, heated at approximately 65° C. and then presented in 40 mL brown plastic containers and under red light to minimize appearance bias (the serving was approximately 25 mL per sample).
# The following statistical tests were used to analyze the sensory raw data: First, the Analysis of Variance (ANOVA) with two factors, products (fixed factor) and subject (random factor) was computed in order to determine if there was any difference among samples. The limit of significance (alpha risk) was set at 5%. […] The limit of significance (alpha risk) was set at 5%.
Compound,taste of the aqueous solution [1],perceived saltiness of the aqueous solution versus the reference samples [1],"salty and umami taste, tasted with nose-clips [2]","savory flavors, tasted without nose-clips [2]",perceived saltiness [3],umami [3],bitterness [4],saltiness ([4]; FIG. 1),meaty taste ([4]; clear trend),umami taste ([4]; clear trend)
"C[C@@H](O)[C@H](NC(=O)[C@@H](N)CCC(=O)O)C(=O)O [glutamyl-threonine, reference compound] (H-Glu-Thr-OH)",slightly umami and salty,–,–,–,–,–,–,–,–,–
CC(O)[C@H](NC(=O)[C@H](CCC(=O)O)NCC1(O)OCC(O)C(O)C1O)C(=O)O (stereo partly drawn) [1-deoxy-D-fructosyl-N-glutamyl-threonine],–,much more salty,significantly more salty and umami,clearly more enhanced savory flavors,more salty,more pronounced umami,decreased,significantly increased,improved,improved
